Data as given in the CheMixHub viscosity set.

Experiment: xn = mol fraction of the nth substance listed

CCC(C)(C)O + CCC(C)=O
Conditions	viscosity [mPa·s]
293.15 K, 101 kPa, x2 = 0.2341	2.105

CN(C)c1ccccc1 + O=C1CCCCC1
viscosity [mPa·s], 101 kPa
Conditions	303.15 K	308.15 K
x1 = 0.0699	1.724	1.569
x1 = 0.1269	1.658	1.502
x1 = 0.1906	1.587	1.432
x1 = 0.2652	1.512	1.353
x1 = 0.3251	1.457	1.299
x1 = 0.4012	1.395	1.245
x1 = 0.4852	1.336	1.195
x1 = 0.5602	1.292	1.161
x1 = 0.6421	1.254	1.136
x1 = 0.7014	1.231	1.124
x1 = 0.7745	1.209	1.114
x1 = 0.8512	1.192	1.113
x1 = 0.9212	1.18	1.112

C=CC#N + CC(=O)c1ccccc1
308.15 K, 101 kPa
Conditions	viscosity [mPa·s]
x2 = 0.0582	0.3608
x2 = 0.1109	0.3946
x2 = 0.1957	0.4532
x2 = 0.2736	0.5132
x2 = 0.3939	0.62
x2 = 0.4591	0.676
x2 = 0.5681	0.7844
x2 = 0.6945	0.9222
x2 = 0.7954	1.052

CC(C)(C)Br + CCCCO
viscosity [mPa·s], 101.3 kPa
Conditions	x1 = 0.0518	x1 = 0.106	x1 = 0.2079	x1 = 0.3109	x1 = 0.4067	x1 = 0.5054	x1 = 0.6023	x1 = 0.7004	x1 = 0.7993	x1 = 0.901
298.15 K	2.264	2.002	1.638	1.377	1.203	1.055	0.9468	0.8591	0.7905	0.7428
313.15 K	1.575	1.41	1.19	1.02	0.9075	0.8127	0.7355	0.6723	0.6264	0.5951

CCCCCCc1ccccc1 + CCCCCCCCCCCCCCCC
viscosity [mPa·s], 102 kPa
Conditions	x1 = 0.1344	x1 = 0.259	x1 = 0.3742	x1 = 0.4819	x1 = 0.5823	x1 = 0.6747	x1 = 0.765	x1 = 0.848	x1 = 0.9262
293.15 K	3.12	2.85	2.63	2.43	2.25	2.11	1.98	1.86	1.77
303.15 K	2.49	2.3	2.13	1.98	1.85	1.74	1.64	1.55	1.47
313.15 K	2.04	1.9	1.76	1.65	1.55	1.46	1.38	1.31	1.25
323.15 K	1.7	1.59	1.49	1.4	1.32	1.25	1.18	1.13	1.08

Cc1ccc(C(C)C)cc1 + CCCCCC
298.15 K, 101.33 kPa
Conditions	viscosity [mPa·s]
x2 = 0.0316	0.768
x2 = 0.0656	0.745
x2 = 0.0967	0.723
x2 = 0.1908	0.662
x2 = 0.2812	0.599
x2 = 0.3795	0.538
x2 = 0.5183	0.474
x2 = 0.6271	0.424
x2 = 0.7093	0.393
x2 = 0.8209	0.349
x2 = 0.9331	0.314

CCC(C)(C)O + COC(C)=O
298.15 K, 101.33 kPa
Conditions	viscosity [mPa·s]
x2 = 0.1632	1.792
x2 = 0.2443	1.33
x2 = 0.35	0.96
x2 = 0.448	0.787
x2 = 0.5246	0.677
x2 = 0.6222	0.57
x2 = 0.7221	0.496
x2 = 0.8153	0.434
x2 = 0.9107	0.395

CCCCC(C)O (centres undefined) + CCO
298.15 K, 101.33 kPa
Conditions	viscosity [mPa·s]
x2 = 0.1065	3.783
x2 = 0.2102	3.485
x2 = 0.3167	3.115
x2 = 0.4096	2.827
x2 = 0.5036	2.512
x2 = 0.6033	2.16
x2 = 0.7079	1.836
x2 = 0.8023	1.572
x2 = 0.9063	1.301

CCCCN(CCCC)CCCC + C=C(C)C(=O)OC
303.15 K, 101 kPa
Conditions	viscosity [mPa·s]
x2 = 0.21	0.9849
x2 = 0.3945	0.8491
x2 = 0.4886	0.7874
x2 = 0.6041	0.7144
x2 = 0.7985	0.6078

O=C[C@@H](O)[C@@H](O)[C@H](O)[C@H](O)CO + O
viscosity [mPa·s], 101 kPa
Conditions	293.15 K	303.15 K	308.15 K	313.15 K
x1 = 0.0026	1.052	0.8259	–	0.6702
x1 = 0.005	1.116	0.8625	0.7717	0.6965

CC(=O)CC(C)=O + CCC(C)(C)O
298.15 K, 101 kPa
Conditions	viscosity [mPa·s]
x1 = 0.1	2.481
x1 = 0.2	1.809
x1 = 0.3	1.39
x1 = 0.4	1.138
x1 = 0.5	0.987
x1 = 0.6	0.893
x1 = 0.7	0.827
x1 = 0.8	0.776
x1 = 0.9	0.733

CCCCN(CCCC)CCCC + CCCCO
viscosity [mPa·s]
Conditions	303.15 K	313.15 K
101 kPa, x1 = 0.007767	2.245	–
101 kPa, x1 = 0.01457	2.236	–
101 kPa, x1 = 0.02285	2.226	–
101 kPa, x1 = 0.03362	2.211	–
101 kPa, x1 = 0.04436	2.197	–
101 kPa, x1 = 0.04946	2.191	–
101 kPa, x1 = 0.05954	2.178	–
101 kPa, x1 = 0.07271	2.16	–
101 kPa, x1 = 0.08924	2.138	–
101.3 kPa, x1 = 0.0942	2.159	1.71
101.3 kPa, x1 = 0.1897	2.028	1.608
101.3 kPa, x1 = 0.3149	1.877	1.481
101.3 kPa, x1 = 0.4192	1.766	1.393
101.3 kPa, x1 = 0.5187	1.65	1.311
101.3 kPa, x1 = 0.618	1.542	1.231
101.3 kPa, x1 = 0.7149	1.448	1.154
101.3 kPa, x1 = 0.8007	1.365	1.102
101.3 kPa, x1 = 0.9031	1.256	1.047

Cc1ccc(C(C)C)cc1 + CO
293.15 K, 101 kPa
Conditions	viscosity [mPa·s]
x2 = 0.2	0.799
x2 = 0.4	0.793
x2 = 0.6	0.793
x2 = 0.7	0.774
x2 = 0.8	0.732
